# Assay results taken from patent US20190117651A1, “COMPOSITION FOR STIMULATING SIRTUIN ACTIVITY” (Bitop AG, priority 2016, published 2019).
# System: sirtuin activity in the lung tissue
# Assay: repeated application of a solution containing ectoine into the lungs of rats; sirtuin activity in the lung tissue
# Type: in vivo
# From the text: The composition proposed by the invention can generally be adopted for the treatment and/or prophylaxis of aging symptoms and for influencing self-renewal processes, cell differentiation and cell proliferation. The composition is of particular importance in the treatment of aging symptoms of the lung, especially of the senile emphysema. This is characterized by the degeneration of the alveolar structures in the lungs, which leads to a reduction of the lung surface which is available for the exchange of gas. In such cases, the patient finds it hard to breathe properly. […] The aging of tissue is attributable to an altered gene activity during the self-renewal and cell differentiation processes in (lung) tissue, which is regulated by the accessibility of DNA by histones and is thus also dependent on sirtuins.
smiles,measurement,value
"CC1=NCC[C@@H](C(=O)O)N1 (stereo in doubt) [ectoine, 2-methyl-1,4,5,6-tetrahydropyrimidine-4-carboxylic acid]",loss of sirtuin activity in the lung tissue,significant reduction of the loss of sirtuin activity
